The supplement of paper PMC10307832

Tests used:
Assay in all cases: relative viability (nuclei count vs DMSO), 5 days (fraction); higher = more cells survive
[1] = compound: Cc1cnc(CNC(=O)c2c(=O)c3ccc(N4CCCN(C)CC4)nc3n3c2sc2ccccc23)cn1 [CX-5461] + Nc1ncn([C@H]2C[C@H](O)[C@@H](CO)O2)c(=O)n1 [Decitabine] (partner 2 µM)
Method in brief: (§1)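 Cells from lung cancer lines were seeded into 1536-well plates and, one day later, dosed by pin tool. Treatments were either a single drug or a fixed dose of an anchor drug with five library-drug doses (not always all listed) in √10 steps. After 5 days, nuclei were stained in a one-step fixation (final 0.05% Triton X-100, 1% formaldehyde, 1 ug/ml Hoechst) and counted on 4× images, and relative viability is the treated-to-vehicle nuclei ratio, as the median of duplicate plates.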

[2] = compound: O=C(Nc1cc(C(F)(F)F)cc(C(F)(F)F)c1)c1cc(Cl)ccc1O [IMD-0354] + Cc1cc(Nc2cc(N3CCN(C)CC3)nc(Sc3ccc(NC(=O)C4CC4)cc3)n2)n[nH]1 [Tozasertib] (partner 0.1 µM)
Method in brief: as §1

[3] = compound: Cc1cnc(CNC(=O)c2c(=O)c3ccc(N4CCCN(C)CC4)nc3n3c2sc2ccccc23)cn1 [CX-5461] + C[C@@H](Oc1cc(-c2cnn(C3CCNCC3)c2)cnc1N)c1c(Cl)ccc(F)c1Cl [Crizotinib] (partner 1 µM)
Method in brief: as §1

[4] = compound: O=C(Nc1cc(C(F)(F)F)cc(C(F)(F)F)c1)c1cc(Cl)ccc1O [IMD-0354] + O=C(CCCCCCC(=O)Nc1ccccc1)NO [Vorinostat] (partner 1 µM)
Method in brief: as §1

Cell Line	relative viability ([1]; first compound 0.01 µM)	relative viability ([1]; first compound 0.03162 µM)	relative viability ([1]; first compound 0.1 µM)	relative viability ([1]; first compound 0.3162 µM)	relative viability ([1]; first compound 1 µM)	relative viability ([2]; first compound 0.04 µM)	relative viability ([2]; first compound 0.1265 µM)	relative viability ([2]; first compound 0.4 µM)	relative viability ([2]; first compound 1.265 µM)	relative viability ([2]; first compound 4 µM)	relative viability ([3]; first compound 0.01 µM)	relative viability ([3]; first compound 0.03162 µM)	relative viability ([3]; first compound 0.1 µM)	relative viability ([3]; first compound 0.3162 µM)	relative viability ([3]; first compound 1 µM)	relative viability ([4]; first compound 0.04 µM)	relative viability ([4]; first compound 0.1265 µM)	relative viability ([4]; first compound 0.4 µM)	relative viability ([4]; first compound 1.265 µM)	relative viability ([4]; first compound 4 µM)
NCI-H596	1.14	0.994	1.06	1.05	0.872	1.02	0.946	0.599	0.955	0.503	0.981	0.972	0.973	1.19	0.907	0.631	0.694	0.413	0.671	0.461
NCI-H322M	0.716	0.701	0.637	0.572	0.614	0.469	0.471	0.387	0.289	0.359	0.924	1.06	0.79		0.877	0.901	0.891	0.48	0.42	0.537
NCI-H647	0.443	0.461	0.325	0.417	0.15	0.441	0.379	0.223	0.169		1.02	1.18	1.05	1.06	0.401	0.76	0.603	0.3	0.128	0.0744
LK-2	0.329	0.278	0.302	0.162	0.279	0.182	0.179	0.207	0.175	0.131		0.188	0.214		0.239	0.291	0.284		0.158	0.216
NCI-H358	0.206	0.195	0.151	0.149	0.121	0.11	0.1	0.0993	0.0845	0.0798	0.524	0.57	0.365	0.26	0.174	0.768	0.753	0.323	0.135	0.175
NCI-H2085	0.58	0.524	0.569	0.563	0.517	0.941	0.797	0.681	0.459	0.405	0.908	0.951	0.833	0.785	0.555	0.825	0.902	0.617	0.376	0.362
NCI-H727	0.89	0.917	0.839	0.83	0.956	0.602	0.673	0.489	0.539	0.453	0.695	0.835	0.692	0.767	0.703	1.04	1.19	0.856	0.808	0.787
NCI-H441	0.234	0.206	0.214	0.275	0.191	0.79	0.667	0.397	0.295	0.24	0.642	0.719	0.867	0.673	0.509	0.971	0.82	0.416	0.246	0.236
LOU-NH91	0.844	0.866	0.79	0.613	0.783	0.774	0.626	0.523	0.184	0.174	0.756	0.784	0.745	0.728	0.759	1.03	0.709	0.164	0.173	0.201
NCI-H3122	0.407	0.387	0.354	0.515	0.417	0.468	0.421	0.248	0.139	0.119	0.299	0.267	0.284	0.255	0.282	1.04	0.936	0.622	0.3	0.132
NCI-H460	0.551	0.429	0.228	0.391	0.0313	0.485	0.35	0.443	0.127	0.0269	1.03	1.06	0.077	0.567	0.0138	0.552	1.09	0.445	0.0405	0.0422
NCI-H650	0.328	0.272	0.298	0.32	0.313	0.834	0.745	0.644	0.36	0.2	0.666	0.961	0.668	0.309	0.631	0.385	0.445	0.349	0.366	0.133
NCI-H661	0.523	0.531	0.458	0.429	0.383	0.319	0.344	0.34	0.273	0.257	1.01	1.08	1.02	0.615	0.944	0.835	0.714	0.455	0.248	0.2
NCI-H1944	0.478	0.443	0.429	0.371	0.44	0.252	0.245	0.206	0.208	0.131	1.16	1.38	1.18		1.05	0.496	0.575	0.384	0.251	0.148
NCI-H1734	0.509	0.489	0.557	0.483	0.483	0.267	0.267	0.265	0.231	0.117	0.666	0.82	0.742	0.536	0.623	0.879	0.781	0.454	0.301	0.102
LXF-289	0.412	0.377	0.404		0.351	0.229	0.235	0.154	0.0929	0.053	0.805	0.882	0.823	0.399	0.725	0.764	0.735	0.612	0.261	0.137
